From ChEMBL document CHEMBL3734750, “A click chemistry approach for the synthesis of mono and bis aryloxy linked coumarinyl triazoles as anti-tubercular agents” (2015) come the findings set out here.

Converted amounts (≈) assume the structure as drawn.

As a reminder, the MIC is the smallest concentration in the dilution series that meets the test's criterion for growth inhibition. A high value points to a need for much substance.

Test [1] deals with Mycobacterium tuberculosis. Kind of test: Antitubercular activity against Mycobacterium tuberculosis after 5 days by microplate Alamar blue assay. The class given is functional. Conditions: 120 h. (Alamar Blue is a resazurin reagent that responds to reducing activity.)
Test [2] deals with Mycobacterium tuberculosis. The experiment in a line: Antitubercular activity against Mycobacterium tuberculosis H37Rv after 5 days by microplate Alamar blue assay. The test is classed as functional. Conditions: for MIC: Mycobacterium tuberculosis, H37Rv, 120 h.

In the case of `Cc1cc(=O)oc2cc(OCc3cn(Cc4cc(=O)oc5ccc(Cl)cc45)nn3)ccc12`, it took 6.25 µg/mL (≈ 13.9 µM) to inhibit growth in test [1] (MIC). With `COc1ccc(OCc2cn(Cc3cc(=O)oc4cc(C)ccc34)nn2)cc1`, in test [2], the “-logMIC” value is on record as 4.3 and the MIC stood at 50 µg/mL (≈ 132 µM). Consider `Cc1ccc2oc(=O)cc(Cn3cc(COc4ccc(OCc5cn(Cc6cc(=O)oc7ccc(C)cc67)nn5)cc4)nn3)c2c1`, for which, in test [2], the “-logMIC” value is 6.69 and it took 0.2 µg/mL (≈ 0.324 µM) to inhibit growth (MIC). The matching figures for `COc1ccc2oc(=O)cc(Cn3cc(COc4ccc(Br)cc4)nn3)c2c1`: 4.3 and 50 µg/mL (≈ 113 µM).

For `Cc1ccc2c(Cn3cc(COc4ccc(Br)cc4)nn3)cc(=O)oc2c1`, in test [2], the “-logMIC” value worked out at 4.3 and it took 50 µg/mL (≈ 117 µM) to inhibit growth (MIC). In the case of `COc1ccc(OCc2cn(Cc3cc(=O)oc4ccc(C)cc34)nn2)cc1`, in test [2], the “-logMIC” value was 4.3 and the MIC was 50 µg/mL (≈ 132 µM). For the compound `O=c1cc(Cn2cc(COc3ccc(Br)cc3)nn2)c2ccc(Cl)cc2o1`, in test [2], the “-logMIC” value was 4.3 and it took 50 µg/mL (≈ 112 µM) to inhibit growth (MIC). For `Cc1ccc2c(Cn3cc(COc4ccc(OCc5cn(Cc6cc(=O)oc7c(C)c(C)ccc67)nn5)cc4)nn3)cc(=O)oc2c1C` the same measures were 5.5 and 3.12 µg/mL (≈ 4.85 µM).

Turning to `COc1ccc(OCc2cn(Cc3cc(=O)oc4cc(C)cc(C)c34)nn2)cc1`, in test [2], the “-logMIC” value was 4.3 and 50 µg/mL (≈ 128 µM) was the least that counted as inhibitory (MIC).

For `COc1ccc(OCc2cn(Cc3cc(=O)oc4ccc5ccccc5c34)nn2)cc1`, in test [2], the “-logMIC” value is 4.3 and the MIC was 50 µg/mL (≈ 121 µM). Regarding `COc1ccc(OCc2cn(Cc3cc(=O)oc4ccc(OC)cc34)nn2)cc1`, in test [2], the “-logMIC” value is 4.3 and the MIC was found to be 50 µg/mL (≈ 127 µM). As for `COc1ccc(OCc2cn(Cc3cc(=O)oc4ccc(Br)cc34)nn2)cc1`, in test [2], the “-logMIC” value worked out at 4.3 and 50 µg/mL (≈ 113 µM) was the least that counted as inhibitory (MIC).

`O=c1cc(Cn2cc(COc3ccc(Br)cc3)nn2)c2ccc3ccccc3c2o1`: in test [2], the “-logMIC” value came out at 4 and the minimum inhibitory concentration (MIC) came to 100 µg/mL (≈ 216 µM). As for `COc1ccc(OCc2cn(Cc3cc(=O)oc4cc(OC)ccc34)nn2)cc1`, in test [2], the “-logMIC” value is recorded as 4.3 and it took 50 µg/mL (≈ 127 µM) to inhibit growth (MIC). With `Cc1ccc2c(Cn3cc(COc4ccc(Cl)cc4)nn3)cc(=O)oc2c1`, in test [2], the “-logMIC” value is recorded as 4.3 and the MIC came out at 50 µg/mL (≈ 131 µM). Regarding `COc1ccc(OCc2cn(Cc3cc(=O)oc4c3ccc3ccccc34)nn2)cc1`, in test [2], the “-logMIC” value came to 4.3 and the minimum inhibitory concentration (MIC) came to 50 µg/mL (≈ 121 µM). With `O=c1cc(Cn2cc(COc3ccc(Br)cc3)nn2)c2cc(Br)ccc2o1`, in test [2], the “-logMIC” value is 4.3 and it took 50 µg/mL (≈ 102 µM) to inhibit growth (MIC). For `COc1ccc(OCc2cn(Cc3cc(=O)oc4cc(Cl)ccc34)nn2)cc1`, in test [2], the “-logMIC” value is on record as 4.3 and the minimal inhibitory concentration (MIC) worked out at 50 µg/mL (≈ 126 µM). With `Cc1cc(C)c2c(Cn3cc(COc4ccc(OCc5cn(Cc6cc(=O)oc7cc(C)cc(C)c67)nn5)cc4)nn3)cc(=O)oc2c1`, in test [2], the “-logMIC” value is recorded as 5.2 and the MIC worked out at 6.25 µg/mL (≈ 9.69 µM). Take `Cc1ccc2c(Cn3cc(COc4ccc(OCc5cn(Cc6cc(=O)oc7cc(C)ccc67)nn5)cc4)nn3)cc(=O)oc2c1`: in test [2], the “-logMIC” value came out at 5.2 and the minimum inhibitory concentration (MIC) worked out at 6.25 µg/mL (≈ 10.1 µM). As for `Cc1ccc2oc(=O)cc(Cn3cc(COc4ccc(Br)cc4)nn3)c2c1`, in test [2], the “-logMIC” value was found to be 4.3 and the minimum inhibitory concentration (MIC) was 50 µg/mL (≈ 117 µM). As for `COc1ccc2c(Cn3cc(COc4ccc(OCc5cn(Cc6cc(=O)oc7cc(OC)ccc67)nn5)cc4)nn3)cc(=O)oc2c1`, in test [2], the “-logMIC” value worked out at 5.2 and the minimum inhibitory concentration (MIC) was determined as 6.25 µg/mL (≈ 9.64 µM).

`O=c1cc(Cn2cc(COc3ccc(Br)cc3)nn2)c2c(ccc3ccccc32)o1`: in test [2], the “-logMIC” value is 4 and the MIC came out at 50 µg/mL (≈ 108 µM). For `Cc1ccc2oc(=O)cc(Cn3cc(COc4ccc(Cl)cc4)nn3)c2c1` the same measures were 4.3 and 50 µg/mL (≈ 131 µM).

Turning to `O=c1cc(Cn2cc(COc3ccc(OCc4cn(Cc5cc(=O)oc6c5ccc5ccccc56)nn4)cc3)nn2)c2ccc3ccccc3c2o1`, in test [2], the “-logMIC” value was 4.93 and the minimum inhibitory concentration (MIC) came out at 12.5 µg/mL (≈ 18.2 µM). With `O=c1cc(Cn2cc(COc3ccc(Cl)cc3)nn2)c2cc(Br)ccc2o1`, in test [2], the “-logMIC” value is reported as 4.3 and the minimum inhibitory concentration (MIC) is 50 µg/mL (≈ 112 µM). Turning to `O=c1cc(Cn2cc(COc3ccc(Cl)cc3)nn2)c2c(ccc3ccccc32)o1`, in test [2], the “-logMIC” value is 4.3 and 50 µg/mL (≈ 120 µM) was the least that counted as inhibitory (MIC). Turning to `O=c1cc(Cn2cc(COc3ccc(Cl)cc3)nn2)c2ccc(Cl)cc2o1`, in test [2], the “-logMIC” value is given as 4.3 and inhibition of growth (MIC) required 50 µg/mL (≈ 124 µM). In test [2], `O=C(O)c1cn(C2CC2)c2cc(N3CCNCC3)c(F)cc2c1=O` [CIPROFLOXACIN] came in with a minimal inhibitory concentration (MIC) of 3.12 µg/mL (≈ 9.43 µM).

The compound `NC(=O)c1cnccn1` [PYRAZINAMIDE] came in with an MIC in test [2] of 3.12 µg/mL (≈ 25.4 µM). Take `CN[C@@H]1[C@H](O[C@H]2[C@H](O[C@H]3[C@H](O)[C@@H](O)[C@H](N=C(N)N)[C@@H](O)[C@@H]3N=C(N)N)O[C@@H](C)[C@]2(O)C=O)O[C@@H](CO)[C@H](O)[C@H]1O` [STREPTOMYCIN]: the MIC in test [2] was 6.25 µg/mL (≈ 10.7 µM).
